Tests used:
[1] = system: Murine breast cancer (4T1) cells; test: In vivo study in tumor-bearing mice; conditions: equivalent doxorubicin dose 7.5 mg/kg i.v. on alternate day, 4T1 tumor Balb/c mice
Procedure: All animal experiments were done with the approval of Institutional Animal Ethical Committee (IAEC), National Institute of Immunology, New Delhi. Murine breast cancer (4T1) cells ([…]) in 200 μL of FBS were injected subcutaneously into the right flanks of 5-week-old female Balb/c mice. Mice were randomized into four groups (6 mice in each group) after they developed a tumor of ˜75 mm^3. […] Tumor measurements were made every alternate day using a digital caliper, and tumor volume was calculated using the formula L×B2/2 where L and B are the length and breadth of the tumor. Each mouse was weighed before dosing and weight loss with respect to dosing. The survival study was continued until the last mouse was found live in all the groups. […] FIG. 9B represents an example of the weight change (%) of Balb/c mice vs injection day when treated as above.

MDAMB-231 cells = test: WST-1 cell viability assay, cancer cells; conditions: 25-150 μg/mL DOX, 24 hours and 72 hours

## COc1cccc2c1C(=O)c1c(O)c3c(c(O)c1C2=O)C[C@@](O)(C(=O)CO)C[C@@H]3O[C@H]1C[C@H](N)[C@H](O)[C@H](C)O1.Cl [DOX, doxorubicin HCl]
[1]
  number of doses after which all animals of the group died: 4 doses
MDAMB-231 cells
  percentage proliferation (cytotoxicity): equally cytotoxic regardless the cell line used

Source: patent US20220289903A1, “POLYMER AND COMPOSITION FROM RENEWABLE SOURCE” (ÅBO AKADEMI UNIVERSITY, priority 2019, published 2022)
